Experimental data from patent US12503438B2, “Compounds for the treatment of kinase-dependent disorders” (Exelixis, Inc., priority 2019, dated 2025).

Tests used:
KDR = KDR (Homo sapiens, UniProt P35968); assay: KDR autophosphorylation ELISA in HUVEC cells; format: cell-based; parameters: endogenous in cells; host or cells: HUVEC (Lonza #C2519A); conditions: cellular activity, VEGF165-stimulated, phospho-KDR ELISA
How it was run: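 Serum-starved (24 h) primary HUVEC were pretreated 1 h with compounds (8-point dilution, 0.3% DMSO final), then stimulated 5 min with 100 ng/mL VEGF165. Lysate phospho-KDR quantified by sandwich ELISA against a phospho-KDR standard; IC50 by 4-parameter fit, normalised to stimulated DMSO and unstimulated controls.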

Human Axl = molecular target: T1, Human Axl (Homo sapiens, UniProt P30530, Q764R); assay: Human AXL kinase assay (33P-phosphoryl transfer radiometric, KinaseProfiler); conditions: biochemical activity; 10 μM ATP
T1 construct: Human Axl (residues H473-A894 with Q764R, 161 nM); purchased Eurofins Pharma Discovery Services UK Limited (KinaseProfiler service)
T1 sequence (P30530 473-894 Q764R): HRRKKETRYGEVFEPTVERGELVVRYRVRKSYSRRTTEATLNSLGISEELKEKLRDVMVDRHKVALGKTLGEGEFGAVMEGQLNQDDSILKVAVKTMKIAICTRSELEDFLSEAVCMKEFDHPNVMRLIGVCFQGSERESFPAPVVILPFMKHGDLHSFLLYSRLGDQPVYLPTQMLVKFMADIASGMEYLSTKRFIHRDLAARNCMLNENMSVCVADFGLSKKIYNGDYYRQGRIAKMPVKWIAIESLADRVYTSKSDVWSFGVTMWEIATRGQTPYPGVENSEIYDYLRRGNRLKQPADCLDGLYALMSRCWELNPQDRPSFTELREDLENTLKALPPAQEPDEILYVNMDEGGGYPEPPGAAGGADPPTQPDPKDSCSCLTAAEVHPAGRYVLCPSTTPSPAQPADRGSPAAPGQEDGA
Procedure: Kinase activity and compound inhibition were investigated using the ^33P-Phosphoryl transfer radiometric kinase assay, performed using the KinaseProfiler™ service of Eurofins Pharma Discovery Services UK Limited. Dose-response experiments were performed using nine compound concentrations in a 96-well microtiter plate. For each assay, all compounds were prepared to a 50× final assay concentration (50 μM) in 100% DMSO, then diluted in a half-log series, with the final top concentration at 1 μM. This working stock of the compound was added to the assay well as the first component in the reaction, followed by the remaining components as detailed in the following assay protocols below. The positive control wells (100% kinase activity) contain all components of the reaction including 2% DMSO (control for solvent effects), except the compound of interest. Blank wells contain all components of the reaction, with the reference inhibitor, staurosporine. This reference compound was used to abolish kinase activity and generated the 0% kinase activity base-line. IC50 values were calculated by nonlinear regression analysis using the sigmoidal dose-response (variable slope) curve fit on XLFit version 5.3 (ID Business Solutions).
Human Axl (residues H473-A894 with Q764R, 161 nM) was incubated with 8 mM MOPS pH 7.0, 0.2 mM EDTA, 250 μM KKSRGDYMTMQIG, 10 mM magnesium acetate, and 10 μM [y-^33P-ATP]. The reaction was initiated by the addition of the Mg/ATP mix. After incubation for 40 minutes at room temperature, the reaction was stopped by the addition of phosphoric acid to a concentration of 0.5%. A reaction aliquot of 10 μL was then spotted onto a P30 filtermat and washed four times for 4 minutes in 0.425% phosphoric acid and once in methanol prior to drying and scintillation counting. Incorporated ^33P was measured using the Wallac Microbeta scintillation counter (Perkin Elmer).

KDR, sequence (P35968 20-1356): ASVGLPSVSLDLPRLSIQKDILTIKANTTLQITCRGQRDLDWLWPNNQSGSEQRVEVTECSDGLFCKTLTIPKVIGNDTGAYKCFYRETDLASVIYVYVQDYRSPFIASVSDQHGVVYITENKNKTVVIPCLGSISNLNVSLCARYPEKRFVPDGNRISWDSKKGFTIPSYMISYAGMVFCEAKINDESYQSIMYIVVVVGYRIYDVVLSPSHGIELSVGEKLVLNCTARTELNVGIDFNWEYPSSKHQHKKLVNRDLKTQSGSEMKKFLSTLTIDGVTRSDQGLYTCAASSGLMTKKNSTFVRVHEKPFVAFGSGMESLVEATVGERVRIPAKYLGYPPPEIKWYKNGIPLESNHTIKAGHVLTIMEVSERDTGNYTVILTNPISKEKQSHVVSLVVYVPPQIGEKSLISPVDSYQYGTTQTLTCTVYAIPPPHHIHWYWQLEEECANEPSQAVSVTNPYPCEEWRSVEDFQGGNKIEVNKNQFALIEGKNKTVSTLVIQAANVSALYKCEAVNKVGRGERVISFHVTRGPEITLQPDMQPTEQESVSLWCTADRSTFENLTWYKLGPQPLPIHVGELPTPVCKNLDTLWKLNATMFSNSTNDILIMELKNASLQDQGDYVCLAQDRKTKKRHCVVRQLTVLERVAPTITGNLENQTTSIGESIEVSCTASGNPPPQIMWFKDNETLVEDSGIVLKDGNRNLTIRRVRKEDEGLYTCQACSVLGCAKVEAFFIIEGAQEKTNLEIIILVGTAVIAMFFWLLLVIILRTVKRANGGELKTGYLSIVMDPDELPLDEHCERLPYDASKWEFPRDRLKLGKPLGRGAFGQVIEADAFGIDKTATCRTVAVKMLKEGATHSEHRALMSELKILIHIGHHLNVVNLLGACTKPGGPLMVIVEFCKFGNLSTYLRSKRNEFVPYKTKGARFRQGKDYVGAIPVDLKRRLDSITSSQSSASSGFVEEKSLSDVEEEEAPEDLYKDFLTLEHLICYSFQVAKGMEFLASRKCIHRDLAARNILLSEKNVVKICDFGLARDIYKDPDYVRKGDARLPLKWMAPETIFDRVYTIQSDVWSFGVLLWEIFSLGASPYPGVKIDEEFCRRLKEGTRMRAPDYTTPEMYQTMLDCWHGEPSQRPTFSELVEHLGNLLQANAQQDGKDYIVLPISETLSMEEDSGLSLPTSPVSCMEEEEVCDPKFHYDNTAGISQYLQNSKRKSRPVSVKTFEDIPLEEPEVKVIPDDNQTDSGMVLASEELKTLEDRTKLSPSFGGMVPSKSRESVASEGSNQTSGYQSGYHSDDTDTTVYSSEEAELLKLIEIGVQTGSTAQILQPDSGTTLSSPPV

Row | IC50 (KDR) [nM] | IC50 (Human Axl) [nM] | Compound
1 | > 300 | 100 to 1000 | C[Si](C)(C)C#Cc1ccc2c(Oc3ccc(NC(=O)C4(C(=O)Nc5ccc(F)cc5)CC4)cc3)ccnc2c1 [Compound 63, 1-N′-(4-Fluorophenyl)-1-N-[4-[7-(2-trimethylsilylethynyl)quinolin-4-yl]oxyphenyl]cyclopropane-1,1-dicarboxamide]
2 | 10 to 100 | 10 to 100 | O=C(Nc1ccc(F)cc1)C1(C(=O)Nc2ccc(Oc3ccnc4cc(-c5nnco5)ccc34)cc2)CC1 [Compound 73, 1-N′-(4-Fluorophenyl)-1-N-[4-[7-(1,3,4-oxadiazol-2-yl)quinolin-4-yl]oxyphenyl]cyclopropane-1,1-dicarboxamide]
3 | ≤ 10 | ≤ 10 | CC(=O)N1CCC(n2cc(-c3ccc4c(Oc5ccc(NC(=O)C6(C(=O)Nc7ccc(F)cc7)CC6)cc5)ccnc4c3)cn2)CC1 [Compound 62, 1-N-[4-[7-[1-(1-Acetylpiperidin-4-yl)pyrazol-4-yl]quinolin-4-yl]oxyphenyl]-1-N′-(4-fluorophenyl)cyclopropane-1,1-dicarboxamide]
4 | ≤ 10 | ≤ 10 | Cn1cnc(-c2ccc3c(Oc4ccc(NC(=O)C5(C(=O)Nc6ccc(F)cc6)CC5)cc4)ccnc3c2)c1 [Compound 69, 1-N′-(4-Fluorophenyl)-1-N-[4-[7-(1-methylimidazol-4-yl)quinolin-4-yl]oxyphenyl]cyclopropane-1,1-dicarboxamide]
5 | ≤ 10 | ≤ 10 | CCn1cc(-c2ccc3c(Oc4ccc(NC(=O)C5(C(=O)Nc6ccc(F)cc6)CC5)cc4)ccnc3c2)cn1 [Compound 20, 1-N-[4-[7-(1-Ethylpyrazol-4-yl)quinolin-4-yl]oxyphenyl]-1-N′-(4-fluorophenyl)cyclopropane-1,1-dicarboxamide]
6 | 100 to 300 | 100 to 1000 | Cc1noc(C)c1-c1ccc2c(Oc3ccc(NC(=O)C4(C(=O)Nc5ccc(F)cc5)CC4)cc3)ccnc2c1 [Compound 53, 1-N-[4-[7-(3,5-Dimethyl-1,2-oxazol-4-yl)quinolin-4-yl]oxyphenyl]-1-N′-(4-fluorophenyl)cyclopropane-1,1-dicarboxamide]
7 | ≤ 10 | ≤ 10 | O=C(Nc1ccc(F)cc1)C1(C(=O)Nc2ccc(Oc3ccnc4cc(-c5cnn(C6COC6)c5)ccc34)cc2)CC1 [Compound 24, 1-N′-(4-Fluorophenyl)-1-N-[4-[7-[1-(oxetan-3-yl)pyrazol-4-yl]quinolin-4-yl]oxyphenyl]cyclopropane-1,1-dicarboxamide]
8 | ≤ 10 | ≤ 10 | O=C(Nc1ccc(F)cc1)C1(C(=O)Nc2ccc(Oc3ccnc4cc(-c5cnc[nH]5)ccc34)cc2)CC1 [Compound 72, 1-N′-(4-Fluorophenyl)-1-N-[4-[7-(1H-imidazol-5-yl)quinolin-4-yl]oxyphenyl]cyclopropane-1,1-dicarboxamide]
9 | 10 to 100 | 10 to 100 | O=C(Nc1ccc(F)cc1)C1(C(=O)Nc2ccc(Oc3ccnc4cc(-c5cnn(C6CC6)c5)ccc34)cc2)CC1 [Compound 22, 1-N-[4-[7-(1-Cyclopropylpyrazol-4-yl)quinolin-4-yl]oxyphenyl]-1-N′-(4-fluorophenyl)cyclopropane-1,1-dicarboxamide]
10 | 10 to 100 | ≤ 10 | O=C(Nc1ccc(F)cc1)C1(C(=O)Nc2ccc(Oc3ccnc4cc(-c5cnn(CCN6CCOCC6)c5)ccc34)cc2)CC1 [Compound 19, 1-N′-(4-Fluorophenyl)-1-N-[4-[7-[1-(2-morpholin-4-ylethyl)pyrazol-4-yl]quinolin-4-yl]oxyphenyl]cyclopropane-1,1-dicarboxamide]
11 | ≤ 10 | ≤ 10 | Cn1cc(-c2ccc3c(Oc4ccc(NC(=O)C5(C(=O)Nc6ccc(F)cc6)CC5)cc4)ccnc3c2)cn1 [Compound 11, 1-N′-(4-Fluorophenyl)-1-N-[4-[7-(1-methylpyrazol-4-yl)quinolin-4-yl]oxyphenyl]cyclopropane-1,1-dicarboxamide]
12 | > 300 | 100 to 1000 | CN(C(=O)C1(C(=O)Nc2ccc(Oc3ccnc4cc(-c5cnn(C)c5)ccc34)cc2)CC1)c1ccc(F)cc1 [Compound 82A, 1-N′-(4-Fluorophenyl)-1-N′-methyl-1-N-[4-[7-(1-methylpyrazol-4-yl)quinolin-4-yl]oxyphenyl]cyclopropane-1,1-dicarboxamide]
13 | 10 to 100 | ≤ 10 | CN1CCC(n2cc(-c3ccc4c(Oc5ccc(NC(=O)C6(C(=O)Nc7ccc(F)cc7)CC6)cc5)ccnc4c3)cn2)CC1 [Compound 61, 1-N′-(4-Fluorophenyl)-1-N-[4-[7-[1-(1-methylpiperidin-4-yl)pyrazol-4-yl]quinolin-4-yl]oxyphenyl]cyclopropane-1,1-dicarboxamide]
14 | ≤ 10 | ≤ 10 | CS(=O)(=O)n1cc(-c2ccc3c(Oc4ccc(NC(=O)C5(C(=O)Nc6ccc(F)cc6)CC5)cc4)ccnc3c2)cn1 [Compound 79, 1-N′-(4-Fluorophenyl)-1-N-[4-[7-(1-methylsulfonylpyrazol-4-yl)quinolin-4-yl]oxyphenyl]cyclopropane-1,1-dicarboxamide]
15 | 100 to 300 | 10 to 100 | C#Cc1ccc2c(Oc3ccc(NC(=O)C4(C(=O)Nc5ccc(F)cc5)CC4)cc3)ccnc2c1 [Compound 64, 1-N-[4-(7-Ethynylquinolin-4-yl)oxyphenyl]-1-N′-(4-fluorophenyl)cyclopropane-1,1-dicarboxamide]
16 | > 300 | 100 to 1000 | O=C(Nc1ccc(F)cc1)C1(C(=O)Nc2ccc(Oc3ccnc4cc(-c5cnn[nH]5)ccc34)cc2)CC1 [Compound 65, 1-N′-(4-Fluorophenyl)-1-N-[4-[7-(1H-triazol-5-yl)quinolin-4-yl]oxyphenyl]cyclopropane-1,1-dicarboxamide]
17 | 10 to 100 | 10 to 100 | CC(C)(C)n1cc(-c2ccc3c(Oc4ccc(NC(=O)C5(C(=O)Nc6ccc(F)cc6)CC5)cc4)ccnc3c2)cn1 [Compound 23, 1-N-[4-[7-(1-tert-Butylpyrazol-4-yl)quinolin-4-yl]oxyphenyl]-1-N′-(4-fluorophenyl)cyclopropane-1,1-dicarboxamide]
18 | 10 to 100 | ≤ 10 | O=C(Nc1ccc(F)cc1)C1(C(=O)Nc2ccc(Oc3ccnc4cc(-c5cnn(CCF)c5)ccc34)cc2)CC1 [Compound 14, 1-N-[4-[7-[1-(2-Fluoroethyl)pyrazol-4-yl]quinolin-4-yl]oxyphenyl]-1-N′-(4-fluorophenyl)cyclopropane-1,1-dicarboxamide]
19 | ≤ 10 | 10 to 100 | O=C(Nc1ccc(F)cc1)C1(C(=O)Nc2ccc(Oc3ccnc4cc(-c5cnn(CC(F)(F)F)c5)ccc34)cc2)CC1 [Compound 16, 1-N′-(4-Fluorophenyl)-1-N-[4-[7-[1-(2,2,2-trifluoroethyl)pyrazol-4-yl]quinolin-4-yl]oxyphenyl]cyclopropane-1,1-dicarboxamide]
20 | ≤ 10 | ≤ 10 | Cn1ncc(-c2ccc3c(Oc4ccc(NC(=O)C5(C(=O)Nc6ccc(F)cc6)CC5)cc4)ccnc3c2)n1 [Compound 86, 1-N′-(4-Fluorophenyl)-1-N-[4-[7-(2-methyltriazol-4-yl)quinolin-4-yl]oxyphenyl]cyclopropane-1,1-dicarboxamide]
21 | 10 to 100 | 10 to 100 | Cn1ccnc1-c1ccc2c(Oc3ccc(NC(=O)C4(C(=O)Nc5ccc(F)cc5)CC4)cc3)ccnc2c1 [Compound 75, 1-N′-(4-Fluorophenyl)-1-N-[4-[7-(1-methylimidazol-2-yl)quinolin-4-yl]oxyphenyl]cyclopropane-1,1-dicarboxamide]
22 | 10 to 100 | 10 to 100 | O=C(Nc1ccc(F)cc1)C1(C(=O)Nc2ccc(Oc3ccnc4cc(-c5cnn(C(F)(F)F)c5)ccc34)cc2)CC1 [Compound 12, 1-N′-(4-Fluorophenyl)-1-N-[4-[7-[1-(trifluoromethyl)pyrazol-4-yl]quinolin-4-yl]oxyphenyl]cyclopropane-1,1-dicarboxamide]
